Measurements published in paper PMC11124822, “Discovery and Anticancer Screening of Novel Oxindole-Based Derivative Bearing Pyridyl Group as Potent and Selective Dual FLT3/CDK2 Kinase Inhibitor” (Pharmaceuticals, 2024).

Tests used:
[1] = test system: CCRF-CEM; assay: NCI-60 antiproliferative screen (SRB); format: cell-based, human; settings: Homo sapiens; 10 µM single dose, 48 h; CCRF-CEM (Leukemia); read-out: Growth inhibition (%)
[2] = test system: HL-60(TB); assay: NCI-60 antiproliferative screen (SRB); format: cell-based, human; settings: Homo sapiens; 10 µM single dose, 48 h; HL-60(TB) (Leukemia); read-out: Growth inhibition (%)
[3] = test system: K-562; assay: NCI-60 antiproliferative screen (SRB); format: cell-based, human; settings: Homo sapiens, K562; 10 µM single dose, 48 h; K-562 (Leukemia); read-out: Growth inhibition (%)
[4] = test system: A549/ATCC; assay: NCI-60 antiproliferative screen (SRB); format: cell-based, human; settings: Homo sapiens; 10 µM single dose, 48 h; A549/ATCC (NSCLC); read-out: Growth inhibition (%)
[5] = test system: EKVX; assay: NCI-60 antiproliferative screen (SRB); format: cell-based, human; settings: Homo sapiens; 10 µM single dose, 48 h; EKVX (NSCLC); read-out: Growth inhibition (%)
[6] = test system: HOP-92; assay: NCI-60 antiproliferative screen (SRB); format: cell-based, human; settings: Homo sapiens; 10 µM single dose, 48 h; HOP-92 (NSCLC); read-out: Growth inhibition (%)
[7] = test system: NCI-H226; assay: NCI-60 antiproliferative screen (SRB); format: cell-based, human; settings: Homo sapiens; 10 µM single dose, 48 h; NCI-H226 (NSCLC); read-out: Growth inhibition (%)
[8] = test system: NCI-H23; assay: NCI-60 antiproliferative screen (SRB); format: cell-based, human; settings: Homo sapiens; 10 µM single dose, 48 h; NCI-H23 (NSCLC); read-out: Growth inhibition (%)
[9] = test system: NCI-H322M; assay: NCI-60 antiproliferative screen (SRB); format: cell-based, human; settings: Homo sapiens; 10 µM single dose, 48 h; NCI-H322M (NSCLC); read-out: Growth inhibition (%)
[10] = test system: NCI-H460; assay: NCI-60 antiproliferative screen (SRB); format: cell-based, human; settings: Homo sapiens; 10 µM single dose, 48 h; NCI-H460 (NSCLC); read-out: Growth inhibition (%)
[11] = test system: COLO 205; assay: NCI-60 antiproliferative screen (SRB); format: cell-based, human; settings: Homo sapiens; 10 µM single dose, 48 h; COLO 205 (Colon); read-out: Growth inhibition (%)
[12] = test system: HCT-15; assay: NCI-60 antiproliferative screen (SRB); format: cell-based, human; settings: Homo sapiens; 10 µM single dose, 48 h; HCT-15 (Colon); read-out: Growth inhibition (%)
[13] = test system: HT29; assay: NCI-60 antiproliferative screen (SRB); format: cell-based, human; settings: Homo sapiens, HT-29; 10 µM single dose, 48 h; HT29 (Colon); read-out: Growth inhibition (%)
[14] = test system: SF-268; assay: NCI-60 antiproliferative screen (SRB); format: cell-based, human; settings: Homo sapiens; 10 µM single dose, 48 h; SF-268 (CNS); read-out: Growth inhibition (%)
[15] = test system: SNB-19; assay: NCI-60 antiproliferative screen (SRB); format: cell-based, human; settings: Homo sapiens; 10 µM single dose, 48 h; SNB-19 (CNS); read-out: Growth inhibition (%)
[16] = test system: LOX IMVI; assay: NCI-60 antiproliferative screen (SRB); format: cell-based, human; settings: Homo sapiens; 10 µM single dose, 48 h; LOX IMVI (Melanoma); read-out: Growth inhibition (%)
[17] = test system: MDA-MB-435; assay: NCI-60 antiproliferative screen (SRB); format: cell-based, human; settings: Homo sapiens; 10 µM single dose, 48 h; MDA-MB-435 (Melanoma); read-out: Growth inhibition (%)
[18] = test system: SK-MEL-5; assay: NCI-60 antiproliferative screen (SRB); format: cell-based, human; settings: Homo sapiens; 10 µM single dose, 48 h; SK-MEL-5 (Melanoma); read-out: Growth inhibition (%)
[19] = test system: UACC-62; assay: NCI-60 antiproliferative screen (SRB); format: cell-based, human; settings: Homo sapiens; 10 µM single dose, 48 h; UACC-62 (Melanoma); read-out: Growth inhibition (%)
[20] = test system: IGROV1; assay: NCI-60 antiproliferative screen (SRB); format: cell-based, human; settings: Homo sapiens, IGROV-1; 10 µM single dose, 48 h; IGROV1 (Ovarian); read-out: Growth inhibition (%)
[21] = test system: SK-OV-3; assay: NCI-60 antiproliferative screen (SRB); format: cell-based, human; settings: Homo sapiens; 10 µM single dose, 48 h; SK-OV-3 (Ovarian); read-out: Growth inhibition (%)
[22] = test system: 786-0; assay: NCI-60 antiproliferative screen (SRB); format: cell-based, human; settings: Homo sapiens; 10 µM single dose, 48 h; 786-0 (Renal); read-out: Growth inhibition (%)
[23] = test system: ACHN; assay: NCI-60 antiproliferative screen (SRB); format: cell-based, human; settings: Homo sapiens; 10 µM single dose, 48 h; ACHN (Renal); read-out: Growth inhibition (%)
[24] = test system: SN12C; assay: NCI-60 antiproliferative screen (SRB); format: cell-based, human; settings: Homo sapiens; 10 µM single dose, 48 h; SN12C (Renal); read-out: Growth inhibition (%)
[25] = test system: TK-10; assay: NCI-60 antiproliferative screen (SRB); format: cell-based, human; settings: Homo sapiens; 10 µM single dose, 48 h; TK-10 (Renal); read-out: Growth inhibition (%)
[26] = test system: HS 578T; assay: NCI-60 antiproliferative screen (SRB); format: cell-based, human; settings: Homo sapiens; 10 µM single dose, 48 h; HS 578T (Breast); read-out: Growth inhibition (%)
[27] = test system: T-47D; assay: NCI-60 antiproliferative screen (SRB); format: cell-based, human; settings: Homo sapiens, T47D; 10 µM single dose, 48 h; T-47D (Breast); read-out: Growth inhibition (%)
[28] = test system: NCI-60 human cancer cell lines; assay: NCI-60 screen, full panel summary; format: cell-based; settings: 10 µM single dose; for Mean Growth Percent: all NCI-60 cell lines
Description: In a comprehensive test, compounds were assayed at a single dose concentration (10^−5 M) in the full panel of NCI-60 cancer cell lines.

With `O=C1Nc2cc(Cl)ccc2C1=Cc1ccc(OCc2ccncc2)cc1` (mixture of isomers) [Compound 5p, (E/Z)-6-Chloro-3-[4-(pyridin-4-ylmethoxy)benzylidene]indolin-2-one] the inhibition at 10 µM [1] was 34.4%, the inhibition at 10 µM [2] was 52.4% and the inhibition at 10 µM [3] was 59.1%. It also gave an inhibition at 10 µM [4] of 27.9%, an inhibition at 10 µM [5] of 45.1% and an inhibition at 10 µM [6] of 49.6%. For the same compound, the inhibition at 10 µM [7] was 49.5%, the inhibition at 10 µM [8] was 57.2% and the inhibition at 10 µM [9] was 22.5%. For the same compound, the inhibition at 10 µM [10] was 36.8%, the inhibition at 10 µM [11] was 39.7% and the inhibition at 10 µM [12] was 76.9%. The inhibition at 10 µM [13] was 37.8%, the inhibition at 10 µM [14] was 16.7% and the inhibition at 10 µM [15] was 28.7%. For the same compound, the inhibition at 10 µM [16] was 65.2%, the inhibition at 10 µM [17] was 29.2% and the inhibition at 10 µM [18] was 65%. The inhibition at 10 µM [19] was 34.7%, the inhibition at 10 µM [20] was 67.9% and the inhibition at 10 µM [21] was 15.5%. The inhibition at 10 µM [22] was 23.9%, the inhibition at 10 µM [23] was 34% and the inhibition at 10 µM [24] was 34.6%. The inhibition at 10 µM [25] was -0.51%, the inhibition at 10 µM [26] was 35% and the inhibition at 10 µM [27] was 67.1%. For the same compound, the “Positive Cytostatic Effect (cell lines with percent growth from 0 to 50 / total number of cell lines)” value [28] was 21/59, the “Positive Cytotoxic Effect (cell lines with percent growth of <0 / total number of cell lines)” value [28] was 0/59 and the “Sensitive/Total Cell Lines” value [28] was 21/59. For the same compound, the “The Most Sensitive Cell Line” value [28] was “SF-539”, the “number of cell lines with cytostatic effects” value [28] was 21 and the “Mean Growth Percent” value [28] was 41.27. For the same compound, the melting point was 233 to 235 °C.
Compound `O=C1Nc2ccc(Cl)cc2C1=Cc1ccc(OCc2ccncc2)cc1` (mixture of isomers) [Compound 5o, (E/Z)-5-Chloro-3-[4-(pyridin-4-ylmethoxy)benzylidene] indolin-2-one] has an inhibition at 10 µM [1] of 53.9%, an inhibition at 10 µM [2] of 66.5% and an inhibition at 10 µM [3] of 72.5%. The inhibition at 10 µM [4] was 39.9%, the inhibition at 10 µM [5] was 37.6% and the inhibition at 10 µM [6] was 16.3%. The inhibition at 10 µM [7] was 38.3%, the inhibition at 10 µM [8] was 55.3% and the inhibition at 10 µM [9] was 40.6%. The inhibition at 10 µM [10] was 57.8%, the inhibition at 10 µM [11] was 19.2% and the inhibition at 10 µM [12] was 79.1%. For the same compound, the inhibition at 10 µM [13] was 39.7%, the inhibition at 10 µM [14] was 55.7% and the inhibition at 10 µM [15] was 73.8%. The inhibition at 10 µM [16] was 58.7%, the inhibition at 10 µM [17] was 58.7% and the inhibition at 10 µM [18] was 62.6%. It also gave an inhibition at 10 µM [19] of 37.6%, an inhibition at 10 µM [20] of 84.7% and an inhibition at 10 µM [21] of 11.4%. The inhibition at 10 µM [22] was 32.4%, the inhibition at 10 µM [23] was 70.2% and the inhibition at 10 µM [24] was 34.4%. The inhibition at 10 µM [25] was 17.7%, the inhibition at 10 µM [26] was 27% and the inhibition at 10 µM [27] was 61%. The “Positive Cytostatic Effect (cell lines with percent growth from 0 to 50 / total number of cell lines)” value [28] was 28/59, the “Positive Cytotoxic Effect (cell lines with percent growth of <0 / total number of cell lines)” value [28] was 0/59 and the “Sensitive/Total Cell Lines” value [28] was 28/59. For the same compound, the “The Most Sensitive Cell Line” value [28] was “MCF7”, the “number of cell lines with cytostatic effects” value [28] was 28 and the “Mean Growth Percent” value [28] was 47.19. It also gave a melting point of 238 to 240 °C.
